A word on the viscosity: it is the internal friction of a fluid under shear.

Numbers after ± are expanded uncertainties.

The source of these data is the NIST ThermoML archive (doi:10.1016/j.jct.2011.06.002).

The conditions of this data set: for viscosity: 101.33 kPa, Liquid, Falling or rolling sphere viscometry.

In the case of `Cl.Cn1ccnc1` [1-methylimidazolium chloride], the viscosity was determined as 108.86 ± 3.6 mPa·s (348.15 K), 92.99 ± 2.8 mPa·s (351.15 K), 84.17 ± 2.3 mPa·s (353.15 K) and 66.28 ± 1.6 mPa·s (358.15 K). The Normal melting temperature (Crystal, DTA) is 74.16 ± 2 °C.
